In patent US20100120798A1, “SUBSTITUTED PIPERIDINES CONTAINING A HETEROARYLAMIDE OR HETEROARYLPHENYL MOIETY” (ASTEX THERAPEUTICS LIMITED, priority 2006, published 2010):

Key:
[1] = In vitro MDA-MB-468 human breast adenocarcinoma GSK-3 phosphorylation assay; assay type: cell-based; settings: mean IC50, MDA-MB-468 cells, 2 hours with compound, phospho-GSK-3β
From the text: This assay determines the ability of test compounds to inhibit phosphorylation of Serine-9 residue in Glycogen Synthase Kinase-3beta (GSK-3β) as a surrogate marker of cellular PKB (Akt) activity, as assessed using Acumen Explorer Fluorescent Plate-Reader technology. A MDA-MB-468 human breast adenocarcinoma cell line (LGC Promochem, Teddington, Middlesex, UK, Catalogue No. HTB-132) was routinely maintained in Dulbecco's modified Eagle's growth medium (DMEM; Invitrogen Limited, Paisley, UK Catalogue No. 11966-025) containing 10% heat-inactivated foetal calf serum (FCS; Sigma, Poole, Dorset, UK, Catalogue No. F0392) and 1% L-glutamine (Gibco, Catalogue No. 25030-024) at 37° C. with 5% CO2 up to a confluency of 70-90%.
For the phosphorylation assay, the cells were detached from the culture flask using Trypsin-EDTA (Invitrogen Limited, Catalogue No. 25300-062) and seeded into the wells of a black transparent-bottom Corning Costar Polystyrene 96 well plate (Fisher Scientific UK, Loughborough, Leicestershire, UK; Catalogue No. 3904 and DPS-130-020K) at a density of 5000 cells per well in 100 μl of complete growth media. The cells were incubated overnight at 37° C. with 5% CO2 to allow them to adhere.
On day 2, the cells were treated with test compounds and incubated for 2 hours at 37° C. with 5% CO2. Test compounds were prepared as 10 mM stock solutions in DMSO and dosed directly to required concentration into test wells using non-contact (acoustic dispensing of multiple 2.5 nl droplets directly into assay wells) ECHO dosing technology (Labcyte Inc. Sunnyvale, Calif., USA). Each plate contained control wells without test compound.
20 μl of fixing buffer (Phosphate Buffered Saline (PBS) containing 10% formaldehyde; Sigma; Catalogue No. F1635) was then added to each well to give a final well concentration 1.6%. Plates were then incubated for 30 minutes at room temperature prior to the fixative being removed. Each well was washed once with 250 μl of PBS and then 50 μl PBS added to each well. PBS was then aspirated and cells permeabilised and blocked by incubating each well with 50 μl of permeabilisation/blocking buffer (PBS containing 0.5% Tween 20 (Sigma; Catalogue No. P5927) and 5% Marvel Milk Powder (Andrews Pharmacy Ltd, Macclesfield, Cheshire, UK; Catalogue No. APC100199)) for 1 hour at room temperature prior to staining.
Following removal of Perm/Block buffer, 50 μl of primary anti-phospho-GSK-3β antibody (Cell Signalling Technology (New England Biolabs (Uk) Ltd.), Hitchin, Hertfordshire, UK; Catalogue No. 9336 diluted 1:400 in Blocking buffer (PBS containing 5% Marvel and 0.05% Tween/Polysorbate 20) was added to each well and incubated overnight at 4° C.
Each well was washed three times in 250 μl of wash buffer (PBS containing 0.05% polysorbate 20), and cells incubated for 1 hour at room temperature with 50 μl of secondary fluorescently-labelled anti-rabbit Alexa Fluor 488 antibody (Molecular Probes, Invitrogen Limited, Catalogue No. A11008) diluted 1:750 in blocking buffer. Plates were washed three times in 250 μl of wash buffer and stored containing 50 μl of PBS at 4° C. until required.
Plates were analysed using an Acumen Explorer Plate-reader to quantify level of fluorescent signal that represents quantity of phosphorylated-GSK-3β.
IC50 calculation—IC50 is the concentration of compound required to give 50% effect over the range of activity affected by the compound, between maximum (no compound) and minimum (excess level of compound) response control data. IC50 values were determined by fitting background corrected, dose response assay data to a 4 parameter logistic curve fit equation model with the minimum response set to zero. This was done using an in-house developed algorithm within the Origin graphing software package (OriginLab Corporation, Northampton, Mass., USA). […]

[2] = target: hERG K+ ion channel (Homo sapiens, UniProt Q12809); test: hERG activity; assay type: cell-based; settings: assay of Bridgland-Taylor et al.; read-out: IC50 against hERG K+ ion channel
From the text: The activity of compounds of the invention against the hERG K^+ ion channel can be determined using the assay described in the article by M. H. Bridgland-Taylor et al., Journal of Pharmcaological and Toxicological Methods, 54 (2006), 189-199.

Chain of hERG K+ ion channel (Q12809 whole entry): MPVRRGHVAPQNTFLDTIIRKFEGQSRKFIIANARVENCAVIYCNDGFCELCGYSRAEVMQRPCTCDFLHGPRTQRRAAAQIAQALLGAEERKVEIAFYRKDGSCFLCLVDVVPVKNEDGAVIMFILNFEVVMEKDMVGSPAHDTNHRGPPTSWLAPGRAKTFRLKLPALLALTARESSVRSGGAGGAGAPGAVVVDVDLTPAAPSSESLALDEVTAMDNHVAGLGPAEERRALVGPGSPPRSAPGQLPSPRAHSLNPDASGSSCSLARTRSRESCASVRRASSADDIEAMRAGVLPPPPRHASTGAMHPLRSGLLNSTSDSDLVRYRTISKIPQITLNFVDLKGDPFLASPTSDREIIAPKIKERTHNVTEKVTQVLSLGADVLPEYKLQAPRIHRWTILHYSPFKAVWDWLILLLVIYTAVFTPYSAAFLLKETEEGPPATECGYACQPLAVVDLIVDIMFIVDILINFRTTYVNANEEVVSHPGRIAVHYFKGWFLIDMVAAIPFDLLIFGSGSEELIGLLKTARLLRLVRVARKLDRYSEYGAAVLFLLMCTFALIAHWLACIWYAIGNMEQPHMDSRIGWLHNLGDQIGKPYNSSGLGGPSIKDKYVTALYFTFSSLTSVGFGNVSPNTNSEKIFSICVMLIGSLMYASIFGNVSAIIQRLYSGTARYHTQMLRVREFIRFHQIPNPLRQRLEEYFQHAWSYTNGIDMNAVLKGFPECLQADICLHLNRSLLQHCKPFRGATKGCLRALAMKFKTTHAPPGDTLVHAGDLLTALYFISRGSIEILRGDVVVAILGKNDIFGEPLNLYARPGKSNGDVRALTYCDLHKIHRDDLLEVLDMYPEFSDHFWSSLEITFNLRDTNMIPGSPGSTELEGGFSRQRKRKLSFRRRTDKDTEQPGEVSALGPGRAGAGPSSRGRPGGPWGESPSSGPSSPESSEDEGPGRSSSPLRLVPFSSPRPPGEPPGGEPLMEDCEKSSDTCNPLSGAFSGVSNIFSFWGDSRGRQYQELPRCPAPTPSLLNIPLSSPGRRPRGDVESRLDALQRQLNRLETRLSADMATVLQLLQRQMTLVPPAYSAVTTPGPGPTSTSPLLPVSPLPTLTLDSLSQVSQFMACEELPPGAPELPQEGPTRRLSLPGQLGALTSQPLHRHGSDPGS

| IC50 [1] [nM] | Compound | IC50 [2] [nM] |
| --- | --- | --- |
| 59 | NCC1(C(=O)NCc2ccc(Cl)nc2)CCN(c2ncnc3[nH]ccc23)CC1 [Example 1, 4-Aminomethyl-1-(7H-pyrrolo[2,3-d]pyrimidin-4-yl)-piperidine-4-carboxylic acid (6-chloro-pyridin-3-ylmethyl)-amide] | > 32000 |
| 880 | NC1(C(=O)NCc2ccc(Cl)nc2)CCN(c2ncnc3[nH]ccc23)CC1 [Example 4, 4-Amino-1-(7H-pyrrolo[2,3-d]pyrimidin-4-yl)-piperidine-4-carboxylic acid (6-chloro-pyridin-3-ylmethyl)amide] | > 32000 |
| 31 | Cn1cc(-c2cccc(C3(CN)CCN(c4ncnc5[nH]cnc45)CC3)c2)cn1 [Example 6, C-[4-[3-(1-Methyl-1H-pyrazol-4-yl)-phenyl]-1-(9H-purin-6-yl)-piperidin-4-yl]-methylamine] | > 32000 |
